Ends that are not written are not given here.

The first assay has as its target HLA-A*02:01 molecule (UniProt P01899+P04439, D140Y/D185E/D98H/E176V/G131W/I119V/I121R/I166T/N151K/N90K/Q86G/Q94H/R138H/R169H). The assay can be described thus: cell-based.
Settings: not given
The class given is binding, human.
“GILFGVFTL [FMP58-66, reference compound]” displayed a 50% effective concentration (EC50) of 2.3 µM.

The same assay, now with this note: SD.
AIFYLITPV [pp1a-2785]: the EC50 was 5.1 ± 1.6 µM.
ALLSDLQDL [pp1a-4183] yielded a concentration for a half-maximal effect (EC50) of 42.4 ± 6.1 µM.
For ALNLGETFV [pp1a-702], the EC50 was determined as 40.7 ± 2.8 µM.
CLHVVGPNV [pp1a-1114] gave an EC50 of 62.9 ± 2.3 µM.
CLLNRYFRL [pp1a-3798] showed a half-maximal effective concentration (EC50) of 81.6 ± 20.2 µM.
The same measure, in the same setting: the result for FITESKPSV [pp1a-1214] reads 122 ± 31.7 µM; that for FLAHIQWMV [pp1a-3122], 6.9 ± 0.4 µM.
As for FLALCADSI [pp1a-685], the EC50 worked out at 10.2 ± 0.5 µM.
On to FLARGIVFM [pp1a-3753], for which the half-maximal effective concentration (EC50) came out at 71.2 ± 12.9 µM. This EC50 is about 7-fold higher than that of the sequence before.
Take FLGRYMSAL [pp1a-1642]: a half-maximal effect (EC50) was put at 124 ± 1.9 µM.
On to FLLNKEMYL [pp1a-3183], for which the EC50 was found to be 12.9 ± 6.8 µM.
FLNGSCGSV [pp1a-3403] gave a concentration giving a half-maximal response (EC50) of 18.7 ± 3.2 µM.
In turn, FLRDGWEIV [pp1a-641] registered a concentration for a half-maximal effect (EC50) of 0.9 ± 0.1 µM. This EC50 lies about 21-fold lower than the previous one.
In turn, GLNDNLLEI [pp1a-445] had a half-maximal effective concentration (EC50) of 6 ± 0.2 µM.
On the same count and under the same terms, the result for GLVEVEKGV [pp1a-52] reads 14.5 ± 4.9 µM.
Regarding IIWFLLLSV [pp1a-2230], a half-maximal effect (EC50) was put at 177 ± 6.3 µM.
The same measure, in the same setting: under ILFTRFFYV [pp1a-2332] stands 96.5 ± 14 µM; under ILGTVSWNL [pp1a-1367], 123 ± 11.3 µM; under ILLLDQALV [pp1a-2569], 9.6 ± 1.5 µM.
ILTSLLVLV [pp1a-3587] showed a half-maximal effective concentration (EC50) of 8.3 ± 0.9 µM.
IVAGGIVAI [pp1a-3047] yielded an EC50 of 50.5 ± 2.5 µM. Compared with the last sequence, the EC50 is about 6.1-fold higher.
KLIEYTDFA [pp1a-2901] showed an EC50 of 126 ± 2.5 µM.
Same read-out and setting: the result for KLMPVCVET [pp1a-1387] reads 174 ± 33.5 µM; that for KLNEEIAII [pp1a-468], 56.2 ± 4.8 µM.
Still for that read-out and setting: under KLWAQCVQL [pp1a-3886] stands 27.2 ± 9.4 µM; under KTLQPVSEL [pp1a-881], 162 ± 28.3 µM.
LLFLMSFTV [pp1a-3083] gave an EC50 of 39.4 ± 0.9 µM.
With LLLTILTSL [pp1a-3583], the half-maximal effective concentration (EC50) amounted to 63.8 ± 3.1 µM.
In the case of LMWLIINLV [pp1a-2364], it took 159 ± 42.8 µM to reach a half-maximal effect (EC50).
On the same count and under the same terms, under MLAKALRKV [pp1a-1312] stands 95.2 ± 0.7 µM.
In the case of MLFTMLRKL [pp1a-4032], the half-maximal effective concentration (EC50) came to 166 ± 21.7 µM.
NLAKHCLHV [pp1a-1109] had a 50% effective concentration (EC50) of 38.5 ± 8.2 µM.
Consider QLFFSYFAV [pp1a-2348], for which the response was half-maximal at 146 ± 19.7 µM (EC50).
On to QLMCQPILL [pp1a-2563], for which a half-maximal response (EC50) required 11.1 ± 1.8 µM.
Still for that read-out and setting: the result for QLSLPVLQV [pp1a-15] reads 79.4 ± 4.4 µM.
In the case of RIMTWLDMV [pp1a-3662], it took 76.5 ± 7.1 µM to reach a half-maximal effect (EC50).
Still for that read-out and setting: under SLINTLNDL [pp1a-1433] stands 123 ± 11 µM; under SLIYSTAAL [pp1a-2242], 134 ± 7.6 µM; under SLPGVFCGV [pp1a-3013], 3.1 ± 0.2 µM.
Take SLRVCVDTV [pp1a-1161]: the 50% effective concentration (EC50) amounted to 85.7 ± 1.9 µM.
Still for that read-out and setting: the result for SMQNCVLKL [pp1a-3344] reads 105 ± 2.2 µM; that for SMWALIISV [pp1a-3732], 8.9 ± 0.4 µM.
The sequence TLGVLVPHV [pp1a-103] gave an EC50 of 1.3 ± 0.2 µM. This EC50 is about 6.8-fold lower than that of the sequence before.
On to TLGVYDYLV [pp1a-3807], for which a half-maximal response (EC50) required 61.7 ± 8.7 µM. Compared with the last sequence, the EC50 is about 47-fold higher.
In the case of TLMNVLTLV [pp1a-3710], the EC50 was 2 ± 0.4 µM. Against the preceding sequence, the EC50 is about 31-fold lower.
On the same count and under the same terms, under TLSEQLDFI [pp1a-214] stands 2 ± 0.2 µM; under TVYEKLKPV [pp1a-619], 5.6 ± 0.7 µM; under VINGDRWFL [pp1a-3475], 85 ± 5.4 µM.
As to VLLSMQGAV [pp1a-3917], the 50% effective concentration (EC50) worked out at 112 ± 7.2 µM.
Sequence VLLSVLQQL [pp1a-3871] showed a concentration giving a half-maximal response (EC50) of 44.9 ± 6 µM.
The sequence VLSEARQHL [pp1a-38] displayed an EC50 of 76.8 ± 6.8 µM. Against the preceding sequence, the EC50 is about 1.7-fold higher.
Same read-out and setting: the result for VLVPHVGEI [pp1a-106] reads 76 ± 2 µM; that for VMAYITGGV [pp1a-597], 9.5 ± 0.9 µM.
Sequence VMVELVAEL [pp1a-84] yielded a concentration giving a half-maximal response (EC50) of 6.8 ± 0.3 µM. This EC50 and that of the sequence before are within 1.5-fold of each other.
WLMWLIINL [pp1a-2363] came in with a half-maximal effective concentration (EC50) of 103 ± 6.4 µM. Against the preceding sequence, the EC50 is about 15-fold higher.
In turn, WMVMFTPLV [pp1a-3128] showed an EC50 of 9.8 ± 1.1 µM. Compared with the last sequence, the EC50 is about 11-fold lower.
As for YITGGVVQL [pp1a-600], the midpoint of the response, the EC50, lay at 48.5 ± 7.9 µM. Against the preceding sequence, the EC50 is about 4.9-fold higher.
For YLASGGQPI [pp1a-4283], the EC50 amounted to 39.8 ± 6.2 µM.
As to YLATALLTL [pp1a-1675], the EC50 was determined as 8.4 ± 0.2 µM.
Consider YLEGSVRVV [pp1a-2968], for which the concentration for a half-maximal effect (EC50) was determined as 7.5 ± 0.1 µM.
In turn, YLNSTNVTI [pp1a-2270] came in with a 50% effective concentration (EC50) of 8.9 ± 0.3 µM.
The sequence YLTNDVSFL [pp1a-3115] showed an EC50 of 4.8 ± 0.3 µM.
YMPYFFTLL [pp1a-2168] showed a concentration giving a half-maximal response (EC50) of 99 ± 2.4 µM.
